Values quoted from earlier work, collected in patent US9744237B2, “Method and system for effecting changes in pigmented tissue” (priority 2009, dated 2017).

What was measured:
tyrosinase = settings: for RAb: relative activity of tyrosinase inhibitor, RAb and F not defined in the patent
uveal melanocytes = settings: for growth and melanogenesis of cultured uveal melanocytes: cAMP-deleted medium

Which “inhibition mechanism on tyrosinase” value (tyrosinase) does the source give for `O=C(/C=C/c1ccc(O)cc1O)c1ccc(O)cc1O` [2,4,2′,4′-Tetrahydroxychalcone] here?
Its value is “Competitive”.

And the RAb (tyrosinase)?
Its RAb is 2.5 F.

For `O=C(/C=C/c1c(O)cc(O)cc1O)c1ccc(O)cc1O` [2,4,6,2′,4′-Pentahydroxychalcone], which “inhibition mechanism on tyrosinase” value (tyrosinase) is on record?
The value was “Competitive”.

What about the RAb (tyrosinase) of the same molecule?
Its RAb is 12.0 F.

Which RAa (tyrosinase; N-Benzylbenzamides, RAa and F not defined in the patent) does the source give for `O=C(NCc1ccc(O)cc1O)c1cc(O)cc(O)c1` [3,5,2′,4′-Tetrahydfoxyl derivatives] here?
Its RAa is 7.4 F.

For `O=c1c(-c2ccc(O)cc2)coc2cc(O)c(O)cc12` [6-Hydroxydaidzein, 6,7,4′-trihydroxyisoflavone], which “inhibition mechanism on tyrosinase” value (tyrosinase) is on record?
Its value is “Competitive”.

What about the RAb (tyrosinase) of the same molecule?
The RAb was 6.0 F.

Which “inhibition mechanism on tyrosinase” value (tyrosinase) does the source give for `O=c1c(-c2ccc(O)cc2)coc2c(O)c(O)ccc12` [8-Hydroxydaidzein, 7,8,4′-trihydroxyisoflavone] here?
The value was “Suicide substrate”.

Which “inhibition mechanism on tyrosinase” value (tyrosinase) does the source give for `O=c1c(-c2ccc(O)cc2)coc2c(O)c(O)cc(O)c12` [8-Hydroxygenistein, 5,7,8,4′-tetrahydroxyisoflavone] here?
Its value is “Suicide substrate”.

And the “tyrosinase inhibitory activity in words” value (tyrosinase)?
Its value is “the most potent suicide substrate of mushroom tyrosinase until now”.

For `COc1cc(O)c2c(=O)cc(-c3ccc(O)cc3O)oc2c1` [Artocarpetin, 5,2′,4′-trihydroxy-7-methoxyflavone], which RAb (tyrosinase) is on record?
The RAb was less than 0.1 F.

For `CC1=C(O)C(=O)C(C)O1` (stereo not shown) [DMHF, 2,5-Dimethyl-4-hydroxy-3(2H)-furanone], which “melanogenesis / melanin content / pigmentation” value (B16 melanoma cells) is on record?
Its value is “inhibits a-MSH induced melanogenesis”.

Which “growth and melanogenesis of cultured uveal melanocytes” value (uveal melanocytes) does the source give for `CNC[C@H](O)c1ccc(O)c(O)c1` [Epinephrine] here?
Its value is “substantially stimulated growth and melanogenesis”.

For `COCCNC(=O)COc1ccc(OCCNC[C@H](O)COc2ccccc2)cc1` [Example D7114], which “growth and melanogenesis of cultured uveal melanocytes” value (uveal melanocytes) is on record?
The value was “showed no effect”.

What does the source list for `CC1(C)C=Cc2c(ccc3c2OC[C@@H](c2ccc(O)cc2O)C3)O1` [Glabridine]?
inhibition mechanism on tyrosinase (tyrosinase): Non-competitive; RAb (tyrosinase): 15.2 F

For `COc1c(CC=C(C)C)c(O)cc2c1C[C@H](c1ccc(O)cc1O)CO2` [GlyasperinC], which RAb (tyrosinase) is on record?
The RAb was 27.7 F.

With `Oc1ccc(-c2ccc3cc(O)ccc3c2)c(O)c1` [HNB, 4-(6-hydroxy-2-naphtyl)-1.3-bezendiol] as the molecule, how does the “tyrosinase inhibitory activity in words” value (tyrosinase) read?
The value was “the strongest tyrosinase inhibitor published until now”.

Which “inhibition mechanism on tyrosinase” value (tyrosinase) does the source give for `COc1c(O)ccc(C2=Cc3ccc(O)cc3OC2)c1OC` [HagininA, 2′,3′-dimethoxy-7,4′-dihdroxyisoflav-3-ene] here?
Its value is “Non-competitive”.

And the RAb (tyrosinase)?
The RAb was 10.1 F.

Which “effect on tyrosinase mRNA / transcription” value (B16 melanoma cells) does the source give for `Cc1ccc(C2(C)CC(C)(C)c3ccc(C)cc3O2)c(O)c1` (stereo not shown) [Inulavosin] here?
The value was “without affecting either the enzymatic activities or the transcription of tyrosinase”.

What about the “melanogenesis / melanin content / pigmentation” value (B16 melanoma cells) of the same molecule?
The value was “reduced the melanin content”.

With `C=C(C)[C@H](CC=C(C)C)Cc1c(O)cc(OC)c(C(=O)/C=C/c2ccc(O)cc2O)c1O` [Kuraridin] as the molecule, how does the RAb (tyrosinase) read?
The RAb was 34.1 F.

For `Br.CCN1C[C@]2(OC(=O)c3ccccc3NC(C)=O)CC[C@H](OC)[C@@]34[C@@H]2C[C@@H]([C@@H]13)[C@@]1(O)C[C@H](OC)[C@H]2C[C@@H]4[C@]1(O)[C@H]2OC` [Lappaconitine hydrobromide], which “tyrosinase inhibitory activity in words” value (tyrosinase) is on record?
Its value is “activity similar to that of kojic acid”.

What does the source list for `C=CC(C)(C)c1cc(/C=C/C(=O)c2ccc(O)cc2)c(OC)cc1O` [LicochalconeA]?
inhibition mechanism on tyrosinase (tyrosinase): Competitive; RAb (tyrosinase): 5.4 F

With `COc1ccc(OC)c(C(O)C(C)N)c1` (stereo not shown) [Methoxamine] as the molecule, how does the “growth and melanogenesis of cultured uveal melanocytes” value (uveal melanocytes) read?
The value was “showed no effect”.

With `C[C@@H]1O[C@H](C[N+](C)(C)C)C[C@H]1O` [Muscarine] as the molecule, how does the “growth and melanogenesis of uveal melanocytes” value (uveal melanocytes; complete medium) read?
The value was “inhibited the growth and melanogenesis”.

What does the source list for `O=c1cc(-c2ccc(O)cc2O)oc2cc(O)cc(O)c12` [Norartocarpetin]?
inhibition mechanism on tyrosinase (tyrosinase): Competitive; RAb (tyrosinase): 10.4 F

Which results are given for `O=C1CC(c2ccc(O)cc2O)Oc2cc(O)cc(O)c21` (stereo not shown) [Streppogenin, 5,7,2′,4′-tetrahydroxy-flavavone]?
inhibition mechanism on tyrosinase (tyrosinase): Competitive; RAb (tyrosinase): 13.6 F

For `CC(C)=CCc1c(O)ccc(/C=C/C(=O)c2ccc(O)cc2O)c1O` [TMBC, 2,4,2′,4′-tetrahydroxy-3-(3-methy1-2-buteny1)-chalcone], which “inhibition mechanism on tyrosinase” value (tyrosinase) is on record?
The value was “Competitive”.

What about the RAb (tyrosinase) of the same molecule?
Its RAb is 26.1 F.

For `Clc1cccc(Cl)c1N=C1NCCN1` [clonidine], which “growth and melanogenesis of cultured uveal melanocytes” value (uveal melanocytes) is on record?
The value was “showed no effect”.

For `OC[C@H]1NC[C@@H](O)[C@@H](O)[C@@H]1O` [deoxymannojirimycin], which “glycosylation, transportation of tyrosinase to the melanosome and melanin synthesis” value (HM3K0 melanoma cells) is on record?
The value was “showed inhibition of glycosylation, transportation of tyrosinase to the melanosome and melanin synthesis”.

Which “melanogenesis / melanin content / pigmentation” value (B16 melanoma cells) does the source give for `N[C@H]1C(O)O[C@H](CO)[C@@H](O)[C@@H]1O` (stereo partly shown) [glucosamine] here?
Its value is “decreased pigmentation”.

With `CC(C)NCC(O)c1ccc(O)c(O)c1` (stereo not shown) [isoproterenol] as the molecule, how does the “growth and melanogenesis of cultured uveal melanocytes” value (uveal melanocytes) read?
Its value is “substantially stimulated growth and melanogenesis”.

For `CC(C)NCC(O)c1cc(O)cc(O)c1` (stereo not shown) [metaproterenol], which “growth and melanogenesis of cultured uveal melanocytes” value (uveal melanocytes) is on record?
Its value is “substantially stimulated growth and melanogenesis”.

For `OCc1ccc(O)cc1` [p-hydroxybenzyl alcohol], which “inhibition mechanism on tyrosinase” value (tyrosinase) is on record?
Its value is “irreversibly inhibited the enzyme”.

With `CC(C)NC[C@H](O)COc1ccc(O)cc1` [prenalterol] as the molecule, how does the “growth and melanogenesis of cultured uveal melanocytes” value (uveal melanocytes) read?
Its value is “showed no effect”.

With `CC(C)(C)NCC(O)c1ccc(O)c(CO)c1` (stereo not shown) [salbutamol] as the molecule, how does the “growth and melanogenesis of cultured uveal melanocytes” value (uveal melanocytes) read?
Its value is “substantially stimulated growth and melanogenesis”.

With “Hen egg white lysozyme (HEWL): Hen egg white lysozyme” as the molecule, how does the “inhibition mechanism on tyrosinase” value (tyrosinase) read?
The value was “reversibly and irreversibly mixed inhibition mechanism”.

With Kuraridinol as the molecule, how does the “inhibition mechanism on tyrosinase” value (tyrosinase) read?
Its value is “Non-competetive”.

Which “melanogenesis / melanin content / pigmentation” value (B16 melanoma cells) does the source give for tunicamycin here?
The value was “decreased pigmentation”.

B1: TGFbeta2: Transforming growth factor-beta2, growth inhibit factor of uveal melanocytes (protein, UniProt P61812 303-414, looked up)
Transforming growth factor …: ALDAAYCFRNVQDNCCLRPLYIDFKRDLGWKWIHEPKGYNANFCAGACPYLWSSDTQHSRVLSLYNTINPEASASPCCVSQDLEPLTILYYIGKTPKIEQLSNMIVKSCKCS
With B1 as the molecule, how does the “amount of active TGFbeta2 in aqueous humor sufficient to inhibit the growth of uveal melanocytes” value (uveal melanocytes) read?
The value was 0.2-0.4 ng m1-1.
